We go through 22 molecules from US8470810B2, “Heterocyclic compounds suitable for treating disorders that respond to modulation of the dopamine D3 receptor” (Abbott GmbH & Co. KG, priority 2004, dated 2013).

For assay [1], the target named is T1, human dopamine D3 receptors (Homo sapiens, UniProt P35462).
T1 construct: expressed in transfected cells
The assay can be described thus: Dopamine D3 receptor binding, displacement of [125I]-iodosulpride. As to conditions: for Ki: membranes of HEK-293 cells stably expressing human D3, 0.1 nM [125I]-iodosulpride, 25° C., 60 minutes; for Ki(D2)*/Ki(D3)*: selectivity ratio of the receptor binding constants D2 over D3. An outline of the steps:
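Displacement of [125I]-iodosulpride at human D3 receptors in pH 7.4 Tris buffer with NaCl, KCl, CaCl2, MgCl2, 0.1% BSA, 10 μM quinolone and 0.1% ascorbic acid, 60 min at 25 °C, in triplicate. Bound label collected by filtration and counted; Ki from nonlinear regression of inhibition curves.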

Assay [2] addresses T2, human dopamine D2L receptors (long isoform) (Homo sapiens, UniProt P14416).
T2 construct: expressed in transfected cells
The assay can be described thus: Dopamine D2L receptor binding, displacement of [125I] iodospiperone. The settings on record: membranes of HEK-293 cells stably expressing human D2L; 0.01 nM [125I] iodospiperone; 25° C., 60 minutes; read-out: Ki(D2)*. An outline of the steps:
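Displacement of [125I]iodospiperone from human D2L receptors, triplicates, in 50 mM Tris pH 7.4 with 120 mM NaCl, 5 mM KCl, 2 mM CaCl2, 2 mM MgCl2, 0.1% BSA. Incubated 60 min at 25 °C, then filtered and counted by scintillation. Ki came from iterative nonlinear regression of inhibition curves.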

T1 sequence (P35462 whole entry): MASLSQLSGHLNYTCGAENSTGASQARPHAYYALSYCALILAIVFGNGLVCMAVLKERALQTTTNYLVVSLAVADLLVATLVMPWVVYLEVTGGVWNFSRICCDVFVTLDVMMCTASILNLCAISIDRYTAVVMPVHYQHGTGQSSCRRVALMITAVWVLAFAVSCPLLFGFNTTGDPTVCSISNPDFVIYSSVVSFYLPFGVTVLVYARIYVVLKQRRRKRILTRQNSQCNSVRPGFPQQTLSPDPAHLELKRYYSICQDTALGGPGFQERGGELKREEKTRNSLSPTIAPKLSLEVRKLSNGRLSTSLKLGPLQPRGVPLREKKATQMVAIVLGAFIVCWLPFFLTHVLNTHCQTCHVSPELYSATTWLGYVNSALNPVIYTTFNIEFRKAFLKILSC
T2 sequence (P14416 whole entry, canonical isoform): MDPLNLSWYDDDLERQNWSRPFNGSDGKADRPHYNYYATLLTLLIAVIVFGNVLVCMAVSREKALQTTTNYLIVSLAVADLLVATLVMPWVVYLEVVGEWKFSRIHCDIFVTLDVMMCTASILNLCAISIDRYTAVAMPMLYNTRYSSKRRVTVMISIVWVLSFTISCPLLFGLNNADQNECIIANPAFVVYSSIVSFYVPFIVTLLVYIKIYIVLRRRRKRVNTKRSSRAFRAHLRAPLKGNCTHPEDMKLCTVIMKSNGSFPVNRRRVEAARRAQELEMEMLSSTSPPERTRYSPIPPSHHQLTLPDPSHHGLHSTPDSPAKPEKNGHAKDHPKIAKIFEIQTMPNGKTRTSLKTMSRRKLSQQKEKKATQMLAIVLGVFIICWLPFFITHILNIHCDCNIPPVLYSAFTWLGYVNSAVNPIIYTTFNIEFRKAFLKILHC

As for `CCCN1CC[C@@H](c2ccc(NS(=O)(=O)c3ccc(Cl)s3)cc2)C1` [Example 105, 5-Chloro-thiophene-2-sulfonic acid [4-((S)-1-propyl-pyrrolidin-3-yl)-phenyl]-amide], in assay [1], the affinity corresponds to a Ki of 6.1 nM and the “Ki(D2)*/Ki(D3)*” value is 51. Besides, in assay [2], the Ki was found to be 309 nM.
For `C=CCN1CC[C@@H](c2ccc(NS(=O)(=O)c3ccc(CCCF)cc3)cc2)C1` [Example 107, N-[4-((S)-1-Allyl-pyrrolidin-3-yl)-phenyl]-4-(3-fluoro-propyl)-benzene sulfonamide] the same measures were 0.42 nM, 108 and 45.8 nM.
The corresponding values for `O=S(=O)(Nc1ccc([C@@H]2CCNC2)cc1)c1ccc(CCCF)cc1` [Example 108, 4-(3-Fluoro-propyl)-N—((S)-4-pyrrolidin-3-yl-phenyl)-benzenesulfonamide] are 11.2 nM, 18 and 204 nM.
For `C[C@H](CF)c1ccc(S(=O)(=O)Nc2ccc([C@@H]3CCNC3)cc2)cc1` [Example 109, 4-((S)-2-Fluoro-1-methyl-ethyl)-N—((S)-4-pyrrolidin-3-yl-Phenyl)-benzenesulfonamide] the same measures were 7.4 nM, 35 and 258 nM.
For `C[C@@H](CF)c1ccc(S(=O)(=O)Nc2ccc([C@@H]3CCNC3)cc2)cc1` [Example 110, 4-((R)-2-Fluoro-1-methyl-ethyl)-N—((S)-4-pyrrolidin-3-yl-phenyl)-benzenesulfonamide], in assay [1], the affinity, expressed as Ki, was 6.6 nM and the “Ki(D2)*/Ki(D3)*” value amounted to 135. Besides, in assay [2], the Ki was 895 nM.
With `CN1CC[C@@H](c2ccc(NS(=O)(=O)c3ccc(OC(F)(F)F)cc3)cc2)C1` [Example 111, N-[4-((S)-1-Methyl-pyrrolidin-3-yl)-phenyl]-4-trifluoromethoxy-benzenesulfonamide], in assay [1], affinity was put at a Ki of 16.4 nM and the “Ki(D2)*/Ki(D3)*” value worked out at 44. The Ki in assay [2] was 723 nM.
On to `C=CCN1CC[C@H](c2ccc(NS(=O)(=O)c3ccc(C(C)C(F)(F)F)cc3)cc2)C1` (stereo partly drawn) [Example 112, N-[4-((R)-1-Allyl-pyrrolidin-3-yl)-phenyl]-4-(2,2,2-trifluoro-1-methyl-ethyl)benzenesulfonamide], for which, in assay [1], the Ki was 10.3 nM and the “Ki(D2)*/Ki(D3)*” value is 116. In addition, the Ki in assay [2] stood at 1200 nM.
The corresponding values for `C=CCN1CC[C@@H](c2ccc(NS(=O)(=O)c3ccc([C@@H](C)CF)cc3)cc2)C1` [Example 113, N-[4-((S)-1-Allyl-pyrrolidin-3-yl)-phenyl]-4-((R)-2-fluoro-1-methyl-ethyl)benzenesulfonamide] are 0.49 nM, 86 and 42.2 nM.
For `O=S(=O)(Nc1ccc([C@@H]2CCN(CCCF)C2)cc1)c1ccc(OC(F)(F)F)cc1` [Example 114, N-{4-[(S)-1-(3-Fluoro-propyl)-pyrrolidin-3-yl]-phenyl}-4-trifluoromethoxy-benzenesulfonamide] the same measures were 4.2 nM, 111 and 464 nM.
In the case of `CCCN1CC[C@@H](c2ccc(NS(=O)(=O)c3ccc(-c4cnn(C)c4)cc3)cc2)C1` [Example 118, 4-(1-Methyl-1H-pyrazol-4-yl)-N-[4-((S)-1-propyl-pyrrolidin-3-yl)-phenyl]-benzenesulfonamide], in assay [1], the inhibition constant (Ki) turned out to be 36.6 nM and the “Ki(D2)*/Ki(D3)*” value amounted to 32. In addition, in assay [2], the Ki stood at 1170 nM.
The corresponding values for `CCCN1CC[C@@H](c2ccc(NS(=O)(=O)c3ccc(N4CCOCC4)cc3)cc2)C1.Cl` [Example 120, 4-Morpholin-4-yl-N-[4-((S)-1-propyl-pyrrolidin-3-yl)-phenyl]-benzenesulfonamide hydrochloride] are 2 nM, 86 and 174 nM.
The corresponding values for `CCCN1CC[C@@H](c2ccc(NS(=O)(=O)c3ccc(OCc4ccccc4)cc3)cc2)C1` [Example 121, 4-Benzyloxy-N-[4-((S)-1-propyl-pyrrolidin-3-yl)-phenyl]-benzenesulfonamide] are 3.7 nM, 44 and 163 nM.
For `CCCN1CC[C@@H](c2ccc(NS(=O)(=O)c3ccc(O)cc3)cc2)C1` [Example 122, 4-Hydroxy-N-[4-((S)-1-propyl-pyrrolidin-3-yl)-phenyl]-benzenesulfonamide] the same measures were 43.9 nM, 31 and 1340 nM.
Turning to `C=Cc1ccc(S(=O)(=O)Nc2ccc([C@@H]3CCN(CCC)C3)cc2)cc1` [Example 123, N-[4-((S)-1-Propyl-pyrrolidin-3-yl)-phenyl]-4-vinyl-benzenesulfonamide], in assay [1], the Ki was determined as 0.45 nM and the “Ki(D2)*/Ki(D3)*” value is 91. Also, in assay [2], the Ki amounted to 41 nM.
The corresponding values for `CCCN1CC[C@@H](c2ccc(NS(=O)(=O)c3ccc(F)cc3)cc2)C1.Cl` [Example 125, 4-Fluoro-N-[4-((S)-1-propyl-pyrrolidin-3-yl)-phenyl]-benzenesulfonamide hydrochloride] are 19.5 nM, 67 and 1300 nM.
Regarding `CCCN1CC[C@@H](c2ccc(NS(=O)(=O)c3ccc(F)c(F)c3)cc2)C1.Cl` [Example 126, 3,4-Difluoro-N-[4-((S)-1-propyl-pyrrolidin-3-yl)-phenyl]-benzenesulfonamide hydrochloride], in assay [1], the affinity, expressed as Ki, was 34 nM and the “Ki(D2)*/Ki(D3)*” value worked out at 30. For the same molecule, the Ki in assay [2] was found to be 1020 nM.
For `CCCN1CC[C@@H](c2ccc(NS(=O)(=O)c3ccc(N4CCC(F)(F)C4)cc3)cc2)C1` [Example 127, 4-(3,3-Difluoro-pyrrolidin-1-yl)-N-[4-((S)-1-propyl-pyrrolidin-3-yl)-phenyl]-benzenesulfonamide] the same measures were 0.6 nM, 112 and 64.7 nM.
Regarding `CC(C)c1ccc(S(=O)(=O)Nc2ccc(C3CCN(Cc4ccccc4)C3)c(F)c2)cc1` (stereo not drawn) [Example 128, N-[4-(1-Benzyl-pyrrolidin-3-yl)-3-fluoro-phenyl]-4-isopropyl-benzenesulfonamide], the results for the Ki in assay [1] and in assay [2] were 2.7 nM and 12.9 nM, respectively. Besides, the “Ki(D2)*/Ki(D3)*” value in assay [1] turned out to be 5.
Consider `CC(C)c1ccc(S(=O)(=O)Nc2ccc(C3CCNC3)c(F)c2)cc1` (stereo not drawn) [Example 129, N-(3-Fluoro-4-pyrrolidin-3-yl-phenyl)-4-isopropyl-benzenesulfonamide], for which the results for the Ki in assay [1] and in assay [2] were 3.6 nM and 106 nM, respectively. The “Ki(D2)*/Ki(D3)*” value in assay [1] worked out at 30.
The corresponding values for `CCCN1CCC(c2ccc(NS(=O)(=O)c3ccc(C(C)C)cc3)cc2F)C1.Cl` (stereo not drawn) [Example 130, N-[3-Fluoro-4-(1-propyl-pyrrolidin-3-yl)-phenyl]-4-isopropyl-benzenesulfonamide, hydrochloride] are 0.52 nM, 8.5 nM and 16.
For `CCCN1CCC[C@@H](c2ccc(NS(=O)(=O)c3ccc(OC(F)(F)F)cc3)cc2)C1` [Example 133, N-[4-((S)-1-Propyl-piperidin-3-yl)-phenyl]-4-trifluoromethoxy-benzenesulfonamide] the same measures were 7.3 nM, 193 nM and 26.
The corresponding values for “N-[4-((S)-1-Propyl-pyrrolidin-3-yl)-phenyl]-4-pyrrol-1-yl-benzenesulfonamide [Example 74]” are 0.69 nM, 10.5 nM and 15.
